Data set [1] relates to HL-60 cells. The experiment in a line: Uptake of tritium-labeled compounds by HL-60 cells. In kind it is cell-based, human. To be noted: for partitioning of label taken up into lipid organic phase: HL-60, 0-72 h, 5 to 30 μM; for uptake by cells: 24 hr. The method, then:
Uptake and metabolism studies. HL-60 cells were grown as described and treated with ^3 H-labeled compounds at concentrations ranging from 0 to 10 μM. At the indicated time points, cell pellets were separated from media and ^3 H radioactivity was counted.
Studies were conducted examining the uptake and metabolism of D- and L-MAPP. In the first set of studies, the effect of duration of exposure of HL-60 cells to D-e-MAPP on the bioactivity of the molecule was determined. D-e-MAPP added to cells could be washed off by repeated sedimentation and washing of cells. Thus, after five cycles of washing, less than 10% of D-MAPP remained associated with the cell pellet-compared to unwashed cells (FIG. 5A).
Next, the uptake of tritium-labeled D- and L-e-MAPP was examined. To this end, D- and L-e-MAPP labeled in the N-myristoyl group were synthesized and used for uptake and metabolism studies. […] At 24 hr, approximately 20% of D-e-MAPP (5 μM) and 26% of L-e-MAPP (5 μM) were taken up by cells.
The partitioning of the label taken up by cells into the lipid organic phase was evaluated next.

Data set [2] has as its target T1, Glucosylceramide synthase (Homo sapiens, UniProt Q16739).
T1 sequence (Q16739 1-394): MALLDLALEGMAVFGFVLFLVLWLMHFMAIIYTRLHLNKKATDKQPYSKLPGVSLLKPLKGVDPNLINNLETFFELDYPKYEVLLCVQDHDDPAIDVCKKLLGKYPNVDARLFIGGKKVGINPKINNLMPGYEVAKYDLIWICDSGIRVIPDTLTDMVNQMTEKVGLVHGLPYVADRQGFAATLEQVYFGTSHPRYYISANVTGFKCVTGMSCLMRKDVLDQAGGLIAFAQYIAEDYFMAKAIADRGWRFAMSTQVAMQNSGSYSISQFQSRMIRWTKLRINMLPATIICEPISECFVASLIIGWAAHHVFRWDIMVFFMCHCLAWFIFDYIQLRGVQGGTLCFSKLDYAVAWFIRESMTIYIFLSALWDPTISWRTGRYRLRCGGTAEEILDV
The experiment in a line: Glucocerebroside (glucosylceramide) synthase assay in vitro. In kind it is biochemical. To be noted: 20 μM; for Glucosylceramide synthase activity: Control 1.009 ± 0.0424; for inhibition of cerebroside synthase activity: Table I. The method, then:
(§1) Glucocerebrosidase and glucocerebroside synthase assays. In vitro assays for gluccerebrosidase and for cerebroside synthase were performed as described (Abe et al, J. Biochem. (Tokyo) 11:191 (1992)).
(§2) In addition to ceramidase, inhibition of cerebroside synthase and sphingomyelin synthase or stimulation of sphingomyelinase or cerebrosidase could result in elevations in endogenous ceramide levels. Therefore, the effects of D- and L-e-MAPP were examined on these enzyme activities in vitro and in cells.

The test system of data set [3] is endogenous levels of sphingomyelin. Nature of the data set: Endogenous sphingomyelin levels in cells. Type of data set: cell-based.
Description: as §2

Data set [4] concerns alkaline ceramidase. Nature of the data set: Alkaline ceramidase activity in vitro at pH 9.0. Type of data set: biochemical, human. To be noted: for use as substrate by alkaline ceramidase: 50 μM tritium-labeled substrate, HL-60 preparation. The method, then: Measurement of ceramidase activity in HL-60 cells. Ceramidase activity in HL-60 cells was measured by a modification of the method of Gatt and Yavin (Methods Enzymol. 14:139 (1969)). Cells were disrupted by sonication in 0.25M sucrose, 1 mM EDTA, and centrifuged at 10,000×g for 10 min after which the supernatant was centrifuged at 100,000×g for 60 min. Ten μl of 1 mM ceramide substrate ([^3 H]C16 -ceramide) was mixed with 100 μl of Triton X-100 (0.1%) in chloroform/methanol, 2:1, and 100 μl of 0.2% sodium cholate in chloroform/methanol, 2:1, after which the solvent was evaporated under N2 at 70° C. To this mixture, 30 μl of water was added and the tubes were heated for 5 s in an 80° C. water bath and then put on ice. Fifty μl of the appropriate buffer depending on desired pH was added followed by 20 μl of 50 mM MgCl2 and 100 μl of cell extract. In experiments using inhibitors, the desired inhibitor was added in ethanol either with the substrate or directly to the final solution. The reaction mixture was incubated for 1 h at 37° C. The ^3 H-fatty acid products of ceramidase were separated by the addition of 2 ml of Dole's solution (isopropyl alcohol, heptane, NaOH), 1.2 ml of heptane, and 1 ml of water. After vortexing and centrifugation, the upper phase was discarded and the lower phase was washed twice with heptane and the upper phase discarded each time. Finally, 1 ml of 1N H2 SO4, and 2 ml of heptane were added, and after vortexing and centrifugation the upper phase was transferred for counting by liquid scintillation.
In order to evaluate the interactions of D- and L-e-MAPP with ceramidase, in vitro studies we conducted using cytosolic and membrane fractions from HL-60 cells. Initially, ceramidase activity was examined for pH dependence using tritium-labeled C16 -ceramide as substrate. […] The alkaline ceramidase activity was very similar to that described in fibroblasts and cerebellar tissue (Sugita et al, Biochim. Biophys. Acta 398:125 (1975), Wertz and Downing, FEBS Lett. 268:110 (1990)). In initial studies, the ability of this ceramidase to utilize D-e- and L-e-MAPP as substrates was investigated. […] These studies corroborate the cellular metabolism studies showing that L-e-MAPP is a substrate for ceramidase in vitro and in cells.
Next, the ability of D- and L-e-MAPP to interfere with hydrolysis of C16 -ceramide by ceramidase at pH 4.5 and 9.0 was evaluated. Inhibition of ceramidase activity by D-e-MAPP was compared to that by N-oleoylethanolamine, a putative inhibitor of acid ceramidase (Sugita et al, Biochim. Biophys. Acta 398:125 (1975)). […] The effects of N-oleoylethanolamine are consistent with the previously reported Ki of 700 μM (Sugita et al, Biochim. Biophys. Acta 398:125 (1975)). […] In contrast, D-e-MAPP was a relatively poor inhibitor of acid ceramidase with less than 10% inhibition of acid ceramidase at 50 μM (FIG. 6C).

In data set [5] the target is T2, β-glucosidase (Homo sapiens, UniProt P04062).
T2 sequence (P04062 40-536): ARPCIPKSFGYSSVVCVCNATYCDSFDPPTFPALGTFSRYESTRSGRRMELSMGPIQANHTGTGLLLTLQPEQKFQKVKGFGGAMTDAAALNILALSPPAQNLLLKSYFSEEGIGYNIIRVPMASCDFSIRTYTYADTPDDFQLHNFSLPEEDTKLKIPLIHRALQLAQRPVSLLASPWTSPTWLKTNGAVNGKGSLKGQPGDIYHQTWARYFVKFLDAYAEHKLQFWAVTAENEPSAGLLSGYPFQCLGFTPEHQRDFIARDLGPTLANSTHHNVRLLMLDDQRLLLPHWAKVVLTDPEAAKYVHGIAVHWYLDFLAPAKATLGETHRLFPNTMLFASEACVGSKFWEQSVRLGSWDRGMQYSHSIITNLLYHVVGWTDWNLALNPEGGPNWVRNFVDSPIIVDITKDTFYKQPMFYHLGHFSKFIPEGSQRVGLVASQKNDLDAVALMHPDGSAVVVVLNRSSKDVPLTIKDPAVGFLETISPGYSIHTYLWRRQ
Nature of the data set: Glucocerebrosidase assay in vitro. Type of data set: biochemical. How it is done: as §1, §2

As to `CCCCCCCCCCCCCC(=O)N[C@@H](C)[C@H](O)c1ccccc1` [L-e-MAPP, L-erythro-2-(N-myristolyamino)-1-phenyl-1-propanol], in data set [1], the “partitioning of label taken up into lipid organic phase” value is “majority of the label in D-e-MAPP or L-e-MAPP remained associated with the organic phase”. Further, the uptake by cells in data set [1] (HL-60, 5 μM) was approximately 26%. In data set [2], the Glucosylceramide synthase activity turned out to be 1.009 ± 0.0383 nmol/h/mg protein and the “inhibition of cerebroside synthase activity” value is given as “Neither D- nor L-e-MAPP caused inhibiton of cerebroside synthase activity”. In addition, in data set [3], the “effect on endogenous levels of sphingomyelin” value is listed as “neither D- nor L-e-MAPP modulated the endogenous levels of sphingomyelin”. Further, in data set [4], the “use as substrate by alkaline ceramidase” value is listed as “readily hydrolyzed by ceramidase to a level equivalent to that seen with C16 -ceramide”. In data set [5], the “effect on activity of β-glucosidase” value is “did not activate or modulate”.

With `CCCCCCCCCCCCCC(=O)N[C@H](C)[C@@H](O)c1ccccc1` [D-e-MAPP, D-erythro-2-(N-myristolyamino)-1-phenyl-1-propanol], in data set [1], the “partitioning of label taken up into lipid organic phase” value is “majority of the label in D-e-MAPP or L-e-MAPP remained associated with the organic phase”. Besides, the uptake by cells entry in data set [1] (HL-60, 5 μM) is listed as “approximately 20%”. In addition, the “compound remaining associated with the cell pellet after washing” value in data set [1] (HL-60, 5 μM, five cycles of washing, compared to unwashed cells) is on record as “less than 10%”. Moreover, in data set [2], the Glucosylceramide synthase activity worked out at 0.946 ± 0.0265 nmol/h/mg protein and the “inhibition of cerebroside synthase activity” value is given as “Neither D- nor L-e-MAPP caused inhibiton of cerebroside synthase activity”. Further, in data set [3], the “effect on endogenous levels of sphingomyelin” value was “neither D- nor L-e-MAPP modulated the endogenous levels of sphingomyelin”. Moreover, the “use as substrate by alkaline ceramidase” value in data set [4] is listed as “not substrate for the alkaline ceramidase”. Moreover, the “inhibition of alkaline ceramidase in vitro” value in data set [4] (final concentration of 5 μM) is listed as “approximately 60%”. The compound further showed an IC50 in data set [4] (pH 9.0, 50 μM C16-ceramide substrate) of 1 to 5 µM. For the same compound, the “effect on activity of β-glucosidase” value in data set [5] was “did not activate or modulate”.

Values taken from patent US5851782A, “Inhibitors of ceramidase” (Duke University, priority 1996, dated 1998).
